Reference: ChEMBL document CHEMBL1811886 (J Med Chem, 2011)

Columns and labels:
[1] = Inhibition of PDE3
Rattus norvegicus [2] = test: Toxicity in rat central nervous system assessed as side effects up to 100 mg/kg, po measured from 15 mins through 6 hrs by Irwin test; format: organism-based; parameters: dose 100 mg/kg, route oral; details: in vivo
Rattus norvegicus [3] = test: Toxicity in rat central nervous system assessed as changes in behavioral response at 10 to 300 mg/kg, po measured from 15 mins through 6 hrs by Irwin test; format: organism-based; parameters: dose 10-300 mg/kg, route oral; details: in vivo
[4] = Distribution coefficient log D of the compound at pH 7.4; format: physicochemical; details: octanol/water
Salmonella typhimurium = test: Mutagenic activity in Salmonella Typhimurium by Ames test; format: toxicity, organism-based; details: salmonella enterica subsp. enterica serovar typhimurium
[5] = Dissociation constant, pKa of the compound; format: physicochemical
[6] = target: Poly [ADP-ribose] polymerase 1 (Homo sapiens, UniProt P09874); test: Inhibition of human PARP1
Rhesus monkey [7] = test: Toxicity in monkey assessed as changes in respiratory function after 28 days; format: organism-based, Macaca mulatta; details: in vivo, 672 h
[8] = target: T1, Sodium-dependent dopamine transporter (Homo sapiens, UniProt Q01959); test: Inhibition of dopamine transporter
[9] = Aqueous solubility of the compound at pH 2; format: physicochemical
Rhesus monkey [10] = test: Toxicity in monkey assessed as changes in cardiovascular function after 28 days; format: organism-based, Macaca mulatta, Heart; details: in vivo, 672 h
Rattus norvegicus [11] = test: Inhibition of RAMH-induced dipsogenia in Long Evans rat administered as po 15 mins prior to RAMH challenge; format: functional
[12] = Drug level in rat brain at 100 mg/kg, po administered after 1 hr post dosing; format: ADME, organism-based; parameters: dose 100 mg/kg, route oral; details: read-out: Drug uptake
[13] = target: Muscarinic acetylcholine receptor M2 (Homo sapiens, UniProt P08172); test: Inhibition of muscarinic M2 receptor
Histamine H3 receptor [14] = target: T2, Histamine H3 receptor (Homo sapiens, UniProt Q9Y5N1); test: Inverse agonist activity at human histamine H3 receptor assessed as inhibition of R-alpha-methylhistamine induced [35S]GTPgammaS binding; format: functional
Histamine H3 receptor [15] = target: T3, Histamine H3 receptor (Rattus norvegicus, UniProt Q9QYN8); test: Inverse agonist activity at rat histamine H3 receptor assessed as inhibition of R-alpha-methylhistamine induced [35S]GTPgammaS binding; format: functional
[16] = Mutagenic activity in human peripheral blood lymphocytes by micronucleus test in presence metabolic activation; format: toxicity, cell-based; details: lymphocyte
Histamine H3 receptor [17] = target: T3, Histamine H3 receptor; test: Displacement of [3H]NAMH from rat histamine H3 receptor expressed in CHO cells; format: cell-based
[18] = Mutagenic activity in human peripheral blood lymphocytes by micronucleus test in absence metabolic activation; format: toxicity, cell-based; details: lymphocyte
Rattus norvegicus [19] = organism: Rattus norvegicus; test: Toxicity in rat up to 28 days; format: organism-based; details: in vivo, 672 h
[20] = Mutagenic activity in Salmonella Typhimurium by Ames test in presence of rat liver S9 fraction; format: toxicity, subcellular; details: salmonella enterica subsp. enterica serovar typhimurium
Rhesus monkey [21] = test: Toxicity in monkey up to 28 days; format: organism-based, Macaca mulatta; details: in vivo, 672 h
Histamine H3 receptor [22] = target: T3, Histamine H3 receptor; test: Antagonist activity at histamine H3 receptor in rat cortical membrane; format: functional, cell membranes
[23] = Apparent permeability across human Caco2 cell membrane; format: ADME, cell-based; details: Caco-2
Rattus norvegicus [24] = test: Inhibition of RAMH-induced dipsogenia in ip dosed Long Evans rat administered 15 mins prior to RAMH challenge; format: functional
[25] = Aqueous solubility of the compound at pH 7.4; format: physicochemical
[26] = target: Alpha-1A adrenergic receptor (Homo sapiens, UniProt P35348); test: Inhibition of adrenergic alpha 1A receptor
[27] = target: T4, Sodium-dependent noradrenaline transporter (Homo sapiens, UniProt P23975); test: Inhibition of norepinephrine transporter
[28] = target: T4, Sodium-dependent noradrenaline transporter; test: Inhibition of recombinant human norepinephrine transporter
[29] = target: T1, Sodium-dependent dopamine transporter; test: Inhibition of recombinant human dopamine transporter
Histamine H3 receptor [30] = target: T2, Histamine H3 receptor; test: Displacement of [3H]NAMH from human histamine H3 receptor expressed in CHO cells; format: cell-based

T3 sequence (Q9QYN8 whole entry): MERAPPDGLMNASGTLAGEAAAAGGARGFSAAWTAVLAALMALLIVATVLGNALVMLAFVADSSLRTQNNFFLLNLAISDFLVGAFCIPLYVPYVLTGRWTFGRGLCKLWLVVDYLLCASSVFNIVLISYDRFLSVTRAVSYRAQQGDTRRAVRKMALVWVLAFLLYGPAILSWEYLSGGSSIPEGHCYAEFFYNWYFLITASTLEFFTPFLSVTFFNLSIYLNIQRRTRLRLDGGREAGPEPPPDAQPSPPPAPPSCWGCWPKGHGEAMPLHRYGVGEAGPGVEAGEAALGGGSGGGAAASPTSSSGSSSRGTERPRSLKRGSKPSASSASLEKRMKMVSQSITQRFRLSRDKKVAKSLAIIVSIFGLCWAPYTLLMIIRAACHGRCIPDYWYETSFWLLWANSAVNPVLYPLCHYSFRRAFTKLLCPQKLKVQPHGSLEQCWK
T1 sequence (Q01959 whole entry): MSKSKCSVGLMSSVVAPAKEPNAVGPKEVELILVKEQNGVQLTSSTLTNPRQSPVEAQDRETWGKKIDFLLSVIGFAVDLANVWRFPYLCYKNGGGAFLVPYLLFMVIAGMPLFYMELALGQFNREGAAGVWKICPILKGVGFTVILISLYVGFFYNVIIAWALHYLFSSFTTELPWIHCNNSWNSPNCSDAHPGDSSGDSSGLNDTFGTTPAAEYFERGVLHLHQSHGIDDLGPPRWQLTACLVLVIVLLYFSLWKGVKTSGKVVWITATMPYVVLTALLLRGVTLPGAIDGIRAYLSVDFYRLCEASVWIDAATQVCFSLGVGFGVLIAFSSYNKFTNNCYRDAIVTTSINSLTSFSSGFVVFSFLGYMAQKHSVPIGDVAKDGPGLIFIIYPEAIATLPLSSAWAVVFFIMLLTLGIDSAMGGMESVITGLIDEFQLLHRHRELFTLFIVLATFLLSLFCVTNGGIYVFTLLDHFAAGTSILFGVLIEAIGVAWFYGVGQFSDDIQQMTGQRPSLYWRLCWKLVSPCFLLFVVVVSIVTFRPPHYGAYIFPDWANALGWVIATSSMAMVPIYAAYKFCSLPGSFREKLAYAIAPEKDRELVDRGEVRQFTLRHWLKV
T2 sequence (Q9Y5N1 whole entry): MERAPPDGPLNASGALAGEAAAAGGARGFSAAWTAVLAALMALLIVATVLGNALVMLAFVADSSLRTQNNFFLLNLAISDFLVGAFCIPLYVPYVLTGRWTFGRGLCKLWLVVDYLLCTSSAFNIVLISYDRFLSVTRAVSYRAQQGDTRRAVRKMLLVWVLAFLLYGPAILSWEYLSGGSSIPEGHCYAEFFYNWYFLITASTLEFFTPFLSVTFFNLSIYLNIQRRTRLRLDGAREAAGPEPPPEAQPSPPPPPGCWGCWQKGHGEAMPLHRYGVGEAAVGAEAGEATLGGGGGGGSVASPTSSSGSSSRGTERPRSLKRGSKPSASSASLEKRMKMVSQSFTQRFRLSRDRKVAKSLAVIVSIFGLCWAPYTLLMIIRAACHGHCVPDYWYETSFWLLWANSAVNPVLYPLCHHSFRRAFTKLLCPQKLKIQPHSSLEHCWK
T4 sequence (P23975 whole entry): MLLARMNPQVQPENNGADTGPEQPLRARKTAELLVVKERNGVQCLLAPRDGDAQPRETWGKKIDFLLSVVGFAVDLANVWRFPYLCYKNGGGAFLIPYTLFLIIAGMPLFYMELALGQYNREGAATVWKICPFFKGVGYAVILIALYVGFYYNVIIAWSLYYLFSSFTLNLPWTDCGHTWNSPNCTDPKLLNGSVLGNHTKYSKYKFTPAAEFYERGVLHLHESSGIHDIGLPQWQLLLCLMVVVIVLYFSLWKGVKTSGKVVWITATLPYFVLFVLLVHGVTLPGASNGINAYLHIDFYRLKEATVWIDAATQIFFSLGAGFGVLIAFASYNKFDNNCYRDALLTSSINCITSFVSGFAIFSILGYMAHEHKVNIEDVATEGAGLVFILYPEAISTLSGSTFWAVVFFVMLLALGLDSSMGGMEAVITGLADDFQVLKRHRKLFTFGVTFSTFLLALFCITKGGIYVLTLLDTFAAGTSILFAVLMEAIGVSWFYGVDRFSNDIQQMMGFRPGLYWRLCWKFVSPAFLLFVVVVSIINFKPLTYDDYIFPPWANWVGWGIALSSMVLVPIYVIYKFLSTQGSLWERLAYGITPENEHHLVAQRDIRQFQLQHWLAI
Muscarinic acetylcholine receptor M2, sequence (P08172 whole entry): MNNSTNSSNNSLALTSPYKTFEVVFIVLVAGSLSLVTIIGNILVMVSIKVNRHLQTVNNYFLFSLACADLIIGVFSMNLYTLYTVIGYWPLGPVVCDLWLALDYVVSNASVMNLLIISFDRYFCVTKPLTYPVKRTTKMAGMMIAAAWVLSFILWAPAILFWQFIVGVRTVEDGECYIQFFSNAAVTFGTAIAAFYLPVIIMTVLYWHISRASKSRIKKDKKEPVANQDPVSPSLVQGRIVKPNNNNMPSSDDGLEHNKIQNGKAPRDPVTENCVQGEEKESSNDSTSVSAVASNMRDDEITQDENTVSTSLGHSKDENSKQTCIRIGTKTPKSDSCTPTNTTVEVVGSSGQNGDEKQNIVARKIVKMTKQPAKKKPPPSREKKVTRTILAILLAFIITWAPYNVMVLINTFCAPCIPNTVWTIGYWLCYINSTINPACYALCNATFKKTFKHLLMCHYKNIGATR
Poly [ADP-ribose] polymerase 1, sequence (P09874 whole entry): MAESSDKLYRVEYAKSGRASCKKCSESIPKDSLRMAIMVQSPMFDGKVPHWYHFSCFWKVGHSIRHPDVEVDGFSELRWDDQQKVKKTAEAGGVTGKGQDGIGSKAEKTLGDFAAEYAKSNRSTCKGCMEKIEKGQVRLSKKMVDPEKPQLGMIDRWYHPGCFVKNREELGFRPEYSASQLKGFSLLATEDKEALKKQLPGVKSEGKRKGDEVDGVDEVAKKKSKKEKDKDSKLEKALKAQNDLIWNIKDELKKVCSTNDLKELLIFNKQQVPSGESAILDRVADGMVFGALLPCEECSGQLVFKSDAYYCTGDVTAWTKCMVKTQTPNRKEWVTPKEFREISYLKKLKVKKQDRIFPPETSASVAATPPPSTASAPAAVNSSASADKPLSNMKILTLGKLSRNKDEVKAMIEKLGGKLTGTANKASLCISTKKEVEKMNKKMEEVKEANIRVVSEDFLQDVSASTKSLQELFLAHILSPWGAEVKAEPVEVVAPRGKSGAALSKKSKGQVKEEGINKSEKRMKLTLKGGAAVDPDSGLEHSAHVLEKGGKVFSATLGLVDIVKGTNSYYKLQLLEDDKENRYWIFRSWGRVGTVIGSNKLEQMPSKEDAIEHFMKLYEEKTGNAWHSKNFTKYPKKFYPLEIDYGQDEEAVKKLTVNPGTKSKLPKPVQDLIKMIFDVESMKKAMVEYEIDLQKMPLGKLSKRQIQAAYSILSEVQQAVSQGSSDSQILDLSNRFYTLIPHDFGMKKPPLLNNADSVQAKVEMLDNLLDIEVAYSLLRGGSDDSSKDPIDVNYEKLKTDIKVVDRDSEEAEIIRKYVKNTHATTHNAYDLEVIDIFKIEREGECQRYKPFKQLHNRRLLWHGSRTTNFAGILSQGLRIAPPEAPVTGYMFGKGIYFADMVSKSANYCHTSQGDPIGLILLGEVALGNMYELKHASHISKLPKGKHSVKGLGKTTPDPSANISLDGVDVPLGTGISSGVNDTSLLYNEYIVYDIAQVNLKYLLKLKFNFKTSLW
Alpha-1A adrenergic receptor, sequence (P35348 whole entry): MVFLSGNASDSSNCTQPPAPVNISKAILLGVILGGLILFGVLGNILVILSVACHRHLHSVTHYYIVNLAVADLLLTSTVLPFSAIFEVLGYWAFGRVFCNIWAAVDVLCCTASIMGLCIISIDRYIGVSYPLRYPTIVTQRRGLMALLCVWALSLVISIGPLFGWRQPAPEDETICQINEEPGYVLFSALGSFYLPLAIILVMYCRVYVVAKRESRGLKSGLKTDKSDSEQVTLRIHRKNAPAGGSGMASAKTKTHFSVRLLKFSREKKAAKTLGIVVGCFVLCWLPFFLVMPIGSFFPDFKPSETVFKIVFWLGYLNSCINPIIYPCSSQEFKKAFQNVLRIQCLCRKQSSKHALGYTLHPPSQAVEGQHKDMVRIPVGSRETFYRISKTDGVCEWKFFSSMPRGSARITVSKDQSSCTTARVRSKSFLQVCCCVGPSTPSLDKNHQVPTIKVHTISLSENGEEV

C[C@@H]1CCCN1CCCOc1ccc(-c2ccc(=O)[nH]n2)cc1 [IRDABISANT]
IC50 [1]: 15 µM | Activity (Rattus norvegicus [2]): Non-toxic | Activity (Rattus norvegicus [3]): Non-toxic | logD [4]: 0.6 | Activity (Salmonella typhimurium): Non-toxic | pKa [5]: 10.2 | IC50 [6]: > 30 µM | Activity (Rhesus monkey [7]): Non-toxic | Ki [8]: 11 µM | solubility [9]: > 2000 µg/mL | Activity (Rhesus monkey [10]): Non-toxic | ED50 (Rattus norvegicus [11]): 0.01 mg/kg | concentration at 1 h [12]: 36 µM | Ki [13]: 3.7 µM | EC50 (Histamine H3 receptor [14]): 0.0011 µM | EC50 (Histamine H3 receptor [15]): 0.002 µM | Activity [16]: Non-toxic | Ki (Histamine H3 receptor [17]): 0.0072 µM | Activity [18]: Non-toxic | Activity (Rattus norvegicus [19]): Non-toxic | Activity [20]: Non-toxic | Activity (Rhesus monkey [21]): Non-toxic | Ki (Histamine H3 receptor [22]): 0.0027 µM | Papp [23]: 13.5 ×10⁻⁶ cm/s | ED50 (Rattus norvegicus [24]): 0.06 mg/kg | solubility [25]: > 2000 µg/mL | Ki [26]: 9.8 µM | Ki [27]: 10 µM | IC50 [28]: 17.5 µM | IC50 [29]: 9.4 µM | Ki (Histamine H3 receptor [30]): 0.002 µM
